Tumor response data for one molecule are collected here from US7399748B2, “Antitumor therapy comprising distamycin derivatives” (Nerviano Medical Sciences S.r.l., priority 2001, dated 2008).

The test system of the assay is solid tumors. Briefly: Phase I trial, iv single administration every three weeks in patients with solid tumors. To be noted: one patient suffering from gastrointestinal sarcoma, dose level 5.1 mg/m^2, iv single administration every three weeks. Type of assay: in vivo. How it is done: A phase I pharmacological trial was carried out to investigate the iv administration of the title compound given as a single administration every three weeks to patients with solid tumors.
The starting dose of 0.85 mg/m^2 was initially escalated in an accelerated design (100% dose increase; 1 patient/dose level) and then by a conventional dose escalation in 3-6 patient cohorts. 11 patients have been entered so far and 25 cycles have been evaluated for toxicity at dose levels of 0.85, 1.7, 3.4, 5.1 and 7.5 mg/M^2.

For `C=C(Br)C(=O)Nc1cc(C(=O)Nc2cc(C(=O)Nc3cc(C(=O)Nc4cc(C(=O)NCCNC(=N)N)n(C)c4)n(C)c3)n(C)c2)n(C)c1.Cl` [PNU 166196, N-(5-{[(5-{[(5-{[(2-{[amino(imino)methyl]amino}ethyl)amino]carbonyl}-1-methyl-1H-pyrrol-3-yl)amino]carbonyl}-1-methyl-1H-pyrrol-3-yl)amino]carbonyl}-1-methyl-1H-pyrrol-3-yl)-4-[(2-bromoacryloyl)amino]-11-methyl-1H-pyrrole-2-carboxamide hydrochloride], the tumor response entry is “partial response”.
